Several values for one entry are separate records, joined by “and”; a condition that tells them apart may be missing. Identical values can stand only once.

One may read the melting point as the temperature, or range, at which the solid turns liquid. `Cc1ccc(CS(=O)(=O)Cl)cc1` [alpha-p-xylenesulfonyl chloride] returned a melting point of 77 °C.
The figure for `CC1CO1` (stereo not given) [propylene oxide] is -112 °C.
The figure for `CN(C)C(=O)Nc1ccccc1` [fenuron] is 134 °C.
Molecule `OB(O)c1ccc(F)cc1C(F)(F)F` [4-fluoro-2-(trifluoromethyl)benzeneboronic acid] came in with a melting point of 185 °C.
The figure for `O=C(O)c1ccccc1` [benzoic acid] is 122 °C.
The figure for `CCOC(=O)C1=C(C)C(C(=O)OCC)N=C1C` (stereo not given) [2,4-Dimethyl-3,5-dicarbethoxypyrrole] is 137 °C; for `COC1=CC(=O)CC(C)C12Oc1c(Cl)c(OC)cc(OC)c1C2=O` (stereo not given) [griseofulvin] it is 219 °C; for `CCOC(=O)c1ccccc1N` [ethyl_2-aminobenzoate] it is 14 °C.
In the case of `O=C(O)CCC(=O)O` [succinic acid], the melting point was 188 °C and 187 °C.
For the molecule `CCCCCCCCCCc1ccccc1` [Decylbenzene], the melting point is -14 °C.
In the case of `CC(=O)Oc1ccccc1C=O` [o-acetoxybenzaldehyde] it was 38 °C.
The figure for `Oc1ccc(cc1)C(CC)=C(/CC)c2ccc(O)cc2` [Diethylstilbestrol] is 170 °C.
The figure for `COc1ccccc1NC(=O)/C=CC(=O)O` [N-(2-methoxyphenyl)maleamic acid] is 144 °C.
`O=C(O)Cc1ccccc1-c1ccccc1` [o-phenyl_phenylacetic_acid] displayed a melting point of 116 °C.
In the case of `CCOC(=O)c1ccc(Cl)c([N+](=O)[O-])c1` [ethyl 4-chloro-3-nitrobenzoate] it was 54 °C; in that of `CCO` [Ethanol], -114 °C.
In the case of `OCC12CC3CC(CC(C3)C1)C2` [1-adamantanemethanol] it was 117 °C; in that of `CC12CCC(C1(C)C)C(C/C=C\c1ccccc1)(C1(C/C=C/c3ccccc3)C(=O)C3(C)CCC1C3(C)C)C2=O` (stereo not given), 152 °C.
Turning to `O=C(O)CSc1ccc(C(F)(F)F)cc1` [[4-(trifluoromethyl)phenylthio]acetic acid], the melting point is 116 °C.
As for `OC[C@H]1O[C@H](O)[C@H](O)[C@@H](O)[C@@H]1O` [alpha-D-Glucopyranose], the melting point was 154 °C.
The figure for `COc1ccccc1C(=O)O` [2-methoxybenzoic acid] is 101 °C.
For the molecule `Cc1cc(B(O)O)cnc1Cl` [6-chloro-5-methylpyridine-3-boronic acid], the melting point is 182 °C.
For `BrCC(Br)Br` [1,1,2-tribromoethane], the melting point was -29 °C.
With `C#CC1(O)CCC2C3CCc4cc(O)ccc4C3C(OC)CC21C` (stereo not given) [moxestrol], the melting point came out at 280 °C.
The figure for `Cc1ccc(Cl)cc1` [1-Chloro-4-methylbenzene] is 7.5 °C; for `CCCCCCCCCCCCBr` [1-bromododecane] it is -10 °C; for `CCOc1ccc(NC(C)=O)cc1` [Phenacetin] it is 135 °C.
The figure for `Cn1c(=O)c2[nH]cnc2n(C)c1=O` [Theophylline] is 270 °C.
The figure for `C=C1N(C(C)=O)c2ccccc2C1(C)C(=O)OC` (stereo not given) is 60 °C.
The molecule `COC(N)=O` [methyl carbamate] had a melting point of 55 °C.
In the case of `c1ccc2c(c1)Cc1ccccc1-2` [Fluorene] it was 116 °C; in that of `COc1ccc(-c2csc(C(C#N)=Cc3ccco3)n2)cc1`, 116 °C; in that of `CC1=CC(O)(c2ccccc2)c2ccccc21` (stereo not given) [3-methyl-1-phenyl-1H-inden-1-ol], 76 °C.
The figure for `C1CCCCCCCCCCC1` [Cyclododecane] is 61 °C.
`O=[N+]([O-])c1cccc(Cl)c1Cl` [2,3-dichloronitrobenzene] gave a melting point of 62 °C.
The figure for `O=C1c2ccccc2-c2ccccc21` [9-fluorenone] is 84 °C; for `O=C(O)c1ccc(Br)cc1` [4-Bromobenzoic acid] it is 253 °C; for `C=CC` [Propylene] it is -185 °C.
Turning to `Cc1cccc(C=O)n1` [6-methylpyridine-2-carboxaldehyde], the melting point stood at 31 °C.
The figure for `CCN(CC)c1ccc(C=O)cc1` [4-diethylaminobenzaldehyde] is 40 °C; for `O=[N+]([O-])/C=C/c1cccc([N+](=O)[O-])c1` [beta,3-dinitrostyrene] it is 126 °C; for `CC(=O)OC1CCC2C3CCC4CC(=C(C)C)CCC4(C)C3CCC12C` (stereo not given) [3-(1-methylethylidene)androstan-17-yl acetate] it is 108 °C.
`O=C1c2ccccc2C(=O)N1OCCCCBr` [N-(4-bromobutoxy)phthalimide] yielded a melting point of 71 °C.
With `CN1CCC(N(Cc2ccccc2)c2ccccc2)CC1` [bamipine], the melting point came out at 114 °C.
The figure for `Cc1cc([N+](=O)[O-])cc[n+]1[O-]` [4-nitro-2-picoline n-oxide] is 156 °C; for `CCCN(CCC)S(=O)(=O)c1ccc(C(=O)O)cc1` [4-(Dipropylsulfamoyl)benzoic acid] it is 195 °C.
Take `O=C(O)c1ccc([N+](=O)[O-])o1` [5-nitro-2-furoic acid]: the melting point came out at 187 °C.
The figure for `Cc1ccc([N+](=O)[O-])cc1C` [4-nitro-1,2-dimethylbenzene] is 31 °C.
In turn, `C(=Cc1ccccc1)c1ccccc1` [stilbene] yielded a melting point of 126 °C.
`Oc1ccc(Cl)cc1Cl` [2,4-Dichlorophenol] showed a melting point of 42.5 °C.
Molecule `N#Cc1ccc([N+](=O)[O-])cc1Cl` [2-chloro-4-nitrobenzonitrile] gave a melting point of 80 °C.
The molecule `CC(C)OC(=O)/N=N/C(=O)OC(C)C` [diisopropyl azodicarboxylate] gave a melting point of 4 °C.
`COc1cc(C(C)=O)ccc1O` [4'-hydroxy-3'-methoxyacetophenone] returned a melting point of 114 °C.
In turn, `N#Cc1c2ccccc2cc2ccccc12` [anthracene-9-carbonitrile] registered a melting point of 177 °C.
`C/C=C/C=O` [(2E)-But-2-enal]: the melting point was -76 °C.
`ClC(Cl)Br` [bromodichloromethane] returned a melting point of -55 °C.
As for `CCCOC(=O)c1ccc(O)cc1` [Propyl 4-hydroxybenzoate], the melting point was determined as 96.5 °C.
In turn, `O=C(O)/C=C/c1ccco1` [3-(2-furyl)acrylic acid] came in with a melting point of 142 °C.
As to `CCCCP(CCCC)CCCC` [Tributylphosphine], the melting point is -60 °C.
`CNC[C@H](O)c1cccc(O)c1` [Phenylephrine]: the melting point was 142 °C.
In the case of `ClCCCCCl` [1,4-dichlorobutane] it was -38 °C; in that of `O=C1Cc2cccc(Br)c21` [5-bromobicyclo[4.2.0]octa-1,3,5-trien-7-one], 82 °C.
The molecule `O=c1c2ccccc2oc2ccccc12` [xanthone] gave a melting point of 176 °C.
With `OCCCCO` [1,4-Butanediol], the melting point amounted to 20.1 °C.
Molecule `CC(C)(C)I` [2-Iodo-2-methylpropane] showed a melting point of -38 °C.
The figure for `Cc1ccc(N)c(C)c1` [2,4-Dimethylaniline] is 16 °C; for `CCCCC#N` [valeronitrile] it is -96 °C.
With `c1ccc2c(c1)ccc1cc3c(ccc4ccccc43)cc12` [Benzo[k]tetraphene], the melting point turned out to be 266 °C.
In the case of `CC(C)CCC[C@@H](C)[C@H]1CC[C@H]2[C@@H]3CC[C@H]4CC(=O)CC[C@]4(C)[C@H]3CC[C@]12C` [5alpha-cholestan-3-one] it was 130 °C; in that of `COCCOC` [1,2-dimethoxyethane], -69 °C.
The figure for `c1ccc(Cc2ccc(-c3ccccc3)cc2)cc1` [4-benzylbiphenyl] is 86 °C; for `CC(C)(C)c1cccc(C(C)(C)C)c1O` [2,6-di-tert-butylphenol] it is 37 °C; for `COC(=O)CC(C)=O` [methyl acetoacetate] it is -80 °C.
In the case of `CCI` [Iodoethane] it was -108 °C; in that of `Nc1ccc([N+](=O)[O-])cc1Cl` [2-chloro-4-nitroaniline], 108 °C.
Molecule `N#Cc1ccccc1C=O` [o-cyanobenzaldehyde] showed a melting point of 108 °C.
In the case of `CC(C)(C)NCC(O)COc1cc(Cl)ccc1Cl` (stereo not given) [cloranolol] it was 82 °C.
`Oc1ccc2ccccc2c1` [2-Naphthol] registered a melting point of 122 °C.
The figure for `O=C(Oc1ccccc1)c1ccccc1C(=O)Oc1ccccc1` [diphenyl phthalate] is 75 °C; for `OCc1ccccc1OC1OC(CO)C(O)C(O)C1O` (stereo not given) [2-(Hydroxymethyl)phenyl hexopyranoside] it is 199 °C; for `NCc1ccccc1` [1-Phenylmethanamine] it is -46 °C.
`O=C(OCc1ccccc1)c1ccccc1` [benzyl benzoate]: the melting point stood at 19 °C.
In the case of `OB(O)c1ccccc1` [benzeneboronic acid] it was 217 °C; in that of `O=S(=O)(O)c1ccccc1` [benzenesulfonic acid], 48 °C.
In the case of `O=C(CCCN1CCC(O)(c2ccc(Cl)cc2)CC1)c1ccc(F)cc1` [Haloperidol] it was 152 °C; in that of `ClCc1cccc(CCl)c1` [m-xylylene dichloride], 35 °C.
`O=S(=O)(Nc1cccc(Cl)c1Cl)c1ccccc1` [2,3-dichloro-1-phenylsulfonamidobenzene] displayed a melting point of 114 °C.
In the case of `Fc1cccc2ccccc12` [1-fluoronaphthalene], the melting point is -10 °C.
For `Cc1ccc(-c2ccccc2)cc1` [1-methyl-4-phenylbenzene], the melting point was 48 °C.
In the case of `[2H]C([2H])([2H])C([2H])([2H])C([2H])([2H])C([2H])([2H])C([2H])([2H])C([2H])([2H])C([2H])([2H])C([2H])([2H])C([2H])([2H])C([2H])([2H])C([2H])([2H])C([2H])([2H])C([2H])([2H])C([2H])([2H])C([2H])([2H])C([2H])([2H])C([2H])([2H])C(=O)O` [(~2~H_35_)Octadecanoic acid] it was 67 °C.
